Kd data for one compound are collected here from PMC4800460 (Journal of Biomolecular Screening, 2015).

The target in the experiment is NT647-MEK1 (MEK1 residues 37–383) (Homo sapiens, UniProt Q02750). The experiment in a line: Automated microscale thermophoresis. The format is binding. In general terms: MST reads how a fluorescent partner responds to local heating, with and without ligand.
NT647-MEK1 (MEK1 residues 37–383), sequence (Q02750 37-383): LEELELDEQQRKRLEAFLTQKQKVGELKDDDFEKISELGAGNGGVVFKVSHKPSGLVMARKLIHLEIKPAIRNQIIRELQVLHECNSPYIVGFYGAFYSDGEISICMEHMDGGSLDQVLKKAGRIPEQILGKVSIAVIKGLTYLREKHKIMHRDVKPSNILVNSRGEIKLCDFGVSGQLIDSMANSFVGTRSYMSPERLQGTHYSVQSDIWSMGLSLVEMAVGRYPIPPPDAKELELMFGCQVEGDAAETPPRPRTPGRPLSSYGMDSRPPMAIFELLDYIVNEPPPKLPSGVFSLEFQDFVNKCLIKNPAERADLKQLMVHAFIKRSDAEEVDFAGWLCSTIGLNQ

As for `Nc1ncnc2c1ncn2[C@@H]1O[C@H](COP(=O)(O)OP(=O)(O)OP(=O)(O)O)[C@@H](O)[C@H]1O` [ATP, adenosine triphosphate], the equilibrium dissociation constant (Kd) – broadly, the constant that tells how readily two partners part at equilibrium – is, setting by setting: (Kd of ATP in the absence of MgCl2, without MgCl2) 140 µM; (Kd of ATP in the presence of MgCl2, MST buffer with 10 mM MgCl2) 4.5 µM.
